Data: US6649621B2, “Prevention or reversal of sensorineural hearing loss (SNHL) through biologic mechanisms” (The United States of America as represented by the …, priority 1997, dated 2003)
“Also recorded” adds a separate entry of the source.

Columns and labels:
[1] = test system: noise-induced cochlear damage; conditions: cited from earlier work
[2] = test system: noise induced hearing loss; test: Oral rescue agent in an individual with noise induced hearing loss; assay type: in vivo, human; conditions: 70 mg/kg by mouth, then 35 mg/kg QID for seven days; one patient
Source text: FIG. 5 is a bar graph comparing the speech reception threshold values of an individual who suffered noise induced hearing loss before and after administration of an oral rescue agent. FIG. 6 is a bar graph comparing the word discrimination scores of an individual who suffered noise induced hearing loss before and after administration of an oral rescue agent. An Army Infantryman lost […] hearing protection in one ear during a live fire training evolution. […] received treatment in the form of ant initial dose of 70 mg/kg of L-N-acetyl cysteine (LNAC) by mouth followed by 35 mg/kg LNAC by mouth QID for seven days.

chinchilla model of SNHL = test: R-PIA on round window membrane, chinchilla 4 kHz octave band noise, evoked potential hearing thresholds; assay type: in vivo
Source text: (§1) FIG. 1 is a series of graphs which depicts our experimental work with R-PIA in a chinchilla model of SNHL. A 10^−4 M solution of R-PIA was placed on the round window membrane of chinchillas for thirty minutes and saline was placed as a control on round window membrane in the opposite-ear. After thirty minutes the fluids were removed, the surgical sites closed and the animals were exposed to 4 kHz octave band noise at 105 dB SPL for thirty minutes.

[3] = test system: inner and outer hair cells; test: R-PIA on round window membrane, simulated M-16 impulse noise, missing hair cells; assay type: in vivo, Chinchilla; conditions: 10^-4 M on round window membrane 30 min, 50-salvo volleys, vs saline control ear
[4] = test system: noise induced permanent hearing loss; test: R-PIA on round window membrane, impulse noise, frequency specific evoked potential threshold shifts; assay type: in vivo, Chinchilla; conditions: out to 20 days post-exposure
Source text: FIGS. 3 & 4 illustrate data from Chinchilla exposed to simulated M-16 rifle fire impulse noise (50-salvo volleys). These animals received R-PIA treatment as outlined above (by the application of a dilute (10^−4 molar) solution of R-PIA directly onto the round window membrane for thirty minutes) with saline as a control on the round window membrane of the opposite ear. FIGS. 3 and 4 depict the percentage of missing inner and outer hair cells quantified in the inner ears of animals euthanized after the noise exposure. […] The results of both these tests show the frequency specific evoked potential threshold shifts from the same Chinchilla prior to and after noise exposure (out to 20 days post-exposure).

[5] = test system: inner and outer hair cells; test: R-PIA on round window membrane, chinchilla 4 kHz octave band noise, inner and outer hair cell losses; assay type: in vivo; conditions: 10^-4 M on round window membrane
Source text: as §1, with “minutes. […] The details of this study have been submitted and recently accepted for publication in a peer-reviewed journal (5).” for “minutes.”

[6] = test system: idiopathic sensorineural hearing loss; test: Treatment of individuals with sudden idiopathic sensorineural hearing loss (oral conventional therapy, then topical round window microcatheter); assay type: in vivo, human; conditions: one patient each
Source text: FIG. 7 is a bar graph comparing the speech reception threshold values of an individual who suffered an idiopathic sensorineural hearing loss before and after administration of a topical rescue agent.
FIG. 8 is a bar graph comparing the word discrimination scores of an individual who suffered an idiopathic sensorineural hearing loss before and after administration of a topical rescue agent.
FIG. 9 is a bar graph comparing the speech reception threshold values of another individual who suffered an idiopathic sensorineural hearing loss before and after administration of a topical rescue agent.
FIG. 10 is a bar graph comparing the word discrimination scores of another individual who suffered an idiopathic sensorineural hearing loss before and after administration of a topical rescue agent.
A Army Sergeant noted the sudden onset of a severe hearing loss and tinnitus in their left ear. They were initially given one week of conventional therapy with oral prednisone and a trial of close observation. They had no response to this treatment regimen and two weeks after experiencing the hearing loss they were treated with topical methylprednisolone. The topical methylprednisolone was administered in a round window microcatheter (IntraEar Corporation, Denver, Colo.) via a method developed by our group. The methylprednisolone was given in a concentration of 125 mg/ml. […]

## CCCCS(=N)(=O)CCC(N)C(=O)O (stereo not drawn) [BSO, buthionine sulfoximine]
[1]; inhibition of GSH synthesis
  hair cell damage and hearing loss associated with noise exposure: enhances the hair cell damage and hearing loss associated with noise exposure

## CC(=O)N[C@@H](CS)C(=O)O [LNAC, L-N-acetyl cysteine]
[2]
  speech reception threshold: complete recovery
  word discrimination ability: complete recovery

## C[C@H](Cc1ccccc1)Nc1ncnc2c1ncn2[C@@H]1O[C@H](CO)[C@@H](O)[C@H]1O [R-PIA, R-N6-Phenylisopropyl adenosine]
Chinchilla model of SNHL; 10^-4 M on round window membrane 30 min, vs saline control ears
  permanent hearing threshold shift / permanent hearing loss: significantly less permanent hearing threshold shift in R-PIA treated ears compared to saline treated ears at 4, 8 and 16 kHz; also recorded: significant reduction in permanent hearing loss
Chinchilla model of SNHL; 10^-4 M on round window membrane 30 min before 4 kHz octave band noise 105 dB SPL, days 0, 1, 2, 4 and 20, vs saline ear
  recovery of hearing thresholds: faster and more complete recovery of hearing thresholds
[3]
  inner and outer hair cell loss: significant reduction of inner and outer hair cell loss
[4]; vs ears that received no treatment
  permanent hearing loss: reduction of permanent hearing loss in R-PIA treated ears as compared to ears that received no treatment
[4]; vs saline treated (control) ears, variety of frequencies
  permanent hearing loss: reduction of permanent hearing loss in R-PIA treated ears as compared to saline treated (control) ears
[5]; both conditions
  inner hair cell losses: minimal
[5]; vs saline control ears
  reduction in outer hair cell loss: fourfold reduction; also recorded: four-fold reduction

## Oc1ncnc2[nH]ncc12 [allopurinol]
[1]; given before and during damaging noise exposure
  cochlear action potential and cochlear microphonic threshold shifts: attenuate cochlear action potential and cochlear microphonic threshold shifts

## C[C@]12C=CC(=O)C=C1CC[C@@H]1[C@@H]2C(=O)C[C@@]2(C)[C@H]1CC[C@]2(O)C(=O)CO [prednisone]
[6]
  response of sudden hearing loss to conventional therapy: no response
